Read-outs that look alike come from different tables or passages of the source.

The test system of data set [1] is macrophages. The data set is described as follows: Pyroptosis of macrophages in cell culture. The conditions noted are these: Macrophage; Example 2 table; unit inferred. The class given is cell-based.
Data set [2] has as its system RAW 264.7 WT cells. The data set is described as follows: Pyroptosis in RAW 264.7 WT cells. The note with it: Mus musculus, RAW264.7. The class given is cell-based.
Data set [3] relates to MV4; 11 Luc-Neo. The data set is described as follows: Pyroptosis in MV4;11 Luc-Neo cells. It counts as cell-based. The conditions noted are these: Homo sapiens.
For data set [4], the system named is THP-1 sgGFP. The data set is described as follows: Pyroptosis in THP-1 sgGFP cells. It counts as cell-based. The note with it: Homo sapiens.
A short description of data set [5]: Maximum tolerated dose study (single dose) in Sprague Dawley rats. The conditions noted are these: SD rats, based on serum drug levels, with Pyrrophenone or AACOCF3. The class given is in vivo. An excerpt:
Bars show the MTD single dose in SD rats prior to seeing animal death. […] See also FIG. 17 for a similar comparison using cPLA2 inhibitors instead of COX inhibitors.
Bars show the MTD single dose in SD rats prior to seeing animal death. Based on serum drug levels, the addition of a cPLA2 inhibitor to the I-DASH inhibitor increases that MTD dose by at least 20-fold.
Bars show the MTD single dose in SD rats prior to seeing animal death.

Data set [6] relates to MB49 murine urothelial carcinoma cell line. The data set is described as follows: MB49 efficacy studies in tumor bearing mice. It counts as in vivo.
The conditions of data set [7]: phase I trial of talabostat and rituximab in rituximab-resistant lymphoma; cited from earlier work.
The test system of data set [8] is G-CSF.

The IC50 is the concentration that gives 50% inhibition. On to `CC(C)[C@H](N)C(=O)N1CCC[C@H]1B(O)O` [Val-boroPro, Valine-boroProline], for which the IC50 was found to be 49 nM in data set [1], 98 nM in data set [2], 60 nM in data set [3] and 168 nM in data set [4]. Further, in data set [5], the “increase of MTD dose on addition of a cPLA2 inhibitor” value is listed as “at least 20 fold”. In addition, the “tumor regression in combination with celecoxib” value in data set [6] (20 microgram dose of Val-boroPro plus celecoxib, individual animal curves) is “facilitated the achievement of tumor regression”. For the same compound, the “antitumor activity in combination with celecoxib” value in data set [6] (Val-boroPro plus celecoxib, tumor volumes over time) is “increased the antitumor activity of Val-boroPro markedly (statistically significantly) and in a dose-dependent manner”. Besides, the partial response in data set [7] is listed as 3 patients. For the same compound, the “Average [G-CSF] at 6 hrs” value in data set [8] (20 μg/animal PO) was 55000 pg/mL; in data set [8] (20 μg/animal SC), 97000 pg/mL.

The record behind these values is US11096924B2, “Combination therapies using immuno-dash inhibitors and PGE2 antagonists” (Trustees of Tufts College, priority 2016, dated 2021).
